According to US11414429B2, “Compound or pharmaceutically acceptable salt thereof” (RIKEN, priority 2016, dated 2022):
Where two headings read alike, the source gives them in different places.

Tests used:
tankyrase 2 (TNKS 2) = target: T1, tankyrase 2 (TNKS 2) (Homo sapiens, UniProt Q9H2K2); assay: Tankyrase inhibitory activity test (ELISA, self-polyADP ribosylation), tankyrase 2; type: biochemical; settings: self-polyADP ribosylation
T1 construct: 613-1, 116aa; made in house; host or cells: cell-free protein synthesis system
Method in brief: (§1)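 IC50 was fitted to residual self-polyADP-ribosylation activity, detected by HRP-streptavidin chemiluminescence. Plate-bound Flag fusions (TNKS1 1,024-1,327aa SAM+PARP; TNKS2 613-1,116aa ANK5+SAM+PARP, cell-free synthesized) saw compound for 10 min at room temperature in 50 mM Tris-HCl pH 8.0, 4 mM MgCl2, 0.2 mM DTT. Reaction with 225 μM NAD/25 μM 6-biotin-17-NAD solution ran 45 min at 30 °C.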

tankyrase 1 (TNKS 1) = target: T2, tankyrase 1 (TNKS 1) (Homo sapiens, UniProt O95271); assay: Tankyrase inhibitory activity test (ELISA, self-polyADP ribosylation), tankyrase 1; type: biochemical; settings: self-polyADP ribosylation
T2 construct: 1,024-1,327aa; made in house; host or cells: cell-free protein synthesis system
Method in brief: as §1

[1] = test system: human colorectal cancer cell line, COLO-320DM; assay: Cell proliferation inhibitory activity test (Celltiter-Glo Luminescent Cell Viability Assay); type: cell-based; settings: COLO-320DM cells, 96 hours
Method in brief: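 GI50 is taken as the concentration halving cell growth versus 1% DMSO control, measured by ATP luminescence. Compound exposure lasted 96 h at 37° C. under 5% CO2, after overnight seeding in RPMI-1640 with 10% FBS and 2 mM glutamine.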

[2] = ELISA, class symbols, read-out: TNKS2 (inhibitory activity against tankyrase 2, IC50 value)
[3] = ELISA, class symbols, read-out: TNKS1 (inhibitory activity against tankyrase 1, IC50 value)
[4] = class symbols, read-out: COLO-320 DM (cell proliferation inhibitory activity, GI50 value)
[5] = tankyrase 2, ELISA, read-out: TNKS2 inhibitory activity (IC50 class)
[6] = tankyrase 1, ELISA, read-out: TNKS1 inhibitory activity (IC50 class)
[7] = read-out: COLO-320 DM cell proliferation inhibitory activity (GI50 class)

T1 sequence (Q9H2K2 613-1166): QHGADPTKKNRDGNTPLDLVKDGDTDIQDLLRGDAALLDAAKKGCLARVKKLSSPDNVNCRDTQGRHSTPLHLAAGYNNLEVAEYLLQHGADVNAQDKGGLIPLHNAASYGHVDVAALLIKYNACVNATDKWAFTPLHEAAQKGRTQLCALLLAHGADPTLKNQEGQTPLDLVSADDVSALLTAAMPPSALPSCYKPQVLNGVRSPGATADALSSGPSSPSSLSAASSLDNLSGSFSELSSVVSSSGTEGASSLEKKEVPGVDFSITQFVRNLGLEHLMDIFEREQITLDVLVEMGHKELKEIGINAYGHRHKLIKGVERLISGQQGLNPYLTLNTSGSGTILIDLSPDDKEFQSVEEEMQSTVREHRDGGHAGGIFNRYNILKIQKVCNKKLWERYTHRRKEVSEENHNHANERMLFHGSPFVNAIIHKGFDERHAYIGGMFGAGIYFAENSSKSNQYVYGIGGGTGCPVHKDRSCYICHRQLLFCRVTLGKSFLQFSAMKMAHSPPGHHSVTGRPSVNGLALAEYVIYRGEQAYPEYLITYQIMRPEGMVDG
T2 sequence (O95271 1024-1327): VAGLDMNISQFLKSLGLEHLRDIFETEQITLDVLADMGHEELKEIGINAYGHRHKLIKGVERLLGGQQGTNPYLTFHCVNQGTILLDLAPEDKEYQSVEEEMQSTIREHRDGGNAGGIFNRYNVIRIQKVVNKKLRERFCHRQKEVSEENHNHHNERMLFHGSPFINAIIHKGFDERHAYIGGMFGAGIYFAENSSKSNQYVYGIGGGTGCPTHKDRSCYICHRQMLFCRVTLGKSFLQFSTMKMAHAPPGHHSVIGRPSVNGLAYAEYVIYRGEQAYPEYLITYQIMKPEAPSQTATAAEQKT

| IC50 (tankyrase 2 (TNKS 2); [2]) [nM] | IC50 (tankyrase 1 (TNKS 1); [3]) [nM] | GI50 [1, 4] [nM] | IC50 (tankyrase 2 (TNKS 2); [5]) [nM] | IC50 (tankyrase 1 (TNKS 1); [6]) [nM] | GI50 [1, 7] [nM] | Structure (SMILES) |
| --- | --- | --- | --- | --- | --- | --- |
| < 20 | < 20 | 100 to 600 |  |  |  | CN1CCCc2c1nc(N1CCC3(CC1)C(=O)N(CC(N)=O)c1cc(F)cc(F)c13)[nH]c2=O [Example 424, 2-[4,6-difluoro-1′-(8-methyl-4-oxo-3,4,5,6,7,8-hexahydropyrido [2,3-d]pyrimidin-2-yl)-2-oxospiro[indoline-3,4′-piperidin]-1(2H)-yl]acetamide] |
|  |  |  | < 20 | < 20 | 100 to 600 | O=c1[nH]c(N2CCC3(CC2)CN(Cc2cncnc2)c2cc(F)cc(F)c23)nc2c1CCCC2 [Example 252, 2-[4,6-difluoro-1-(pyrimidin-5-yl)methyl-spiro [indoline-3,4′-piperidin]-1′-yl]-5,6,7,8-tetrahydro-quinazolin-4(3H)-one] |
|  |  |  | < 20 | < 20 | 600 to 1000 | CN1CCCc2c1nc(N1CCC3(CC1)C(=O)N(CCO)c1cc(OCCN4CCOCC4)cc(F)c13)[nH]c2=O [Example 386, 4-fluoro-1-(2-hydroxy-ethyl)-1′-(8-methyl-4-oxo-3,4,5,6,7,8-hexahydropyrido [2,3-d]pyrimidin-2-yl)-6-(2-morpholino-ethoxy)spiro [indoline-3,4′-piperidin]-2-one] |
|  |  |  | < 20 | < 20 | 600 to 1000 | CN1CCCc2c1nc(N1CCC3(CC1)C(=O)N(C)c1cc(OCCCN4CCOCC4)cc(F)c13)[nH]c2=O [Example 365, 4-fluoro-1-methyl-1′-(8-methyl-4-oxo-3,4,5,6,7,8-hexahydro-pyrido[2,3-d]pyrimidin-2-yl)-6-(3-morpholino-propoxy) spiro[indoline-3,4′-piperidin]-2-one] |
|  |  |  | < 20 | < 20 | 100 to 600 | [2H]C([2H])([2H])N1CCCc2c1nc(N1CCC3(CC1)C(=O)N(CCO)c1cc(F)cc(F)c13)[nH]c2=O [Example 370, 4,6-difluoro-1-(2-hydroxyethyl)-1′-[8-(methyl-d3)-4-oxo-3,4,5,6,7,8-hexahydro-pyrido [2,3-d]pyrimidin-2-yl] spiro[in-doline-3,4′-piperidin]-2-one] |
|  |  |  | < 20 | < 20 | 100 to 600 | O=C1N(Cc2cccnc2)c2cccc(Cl)c2C12CCN(c1nc3c(c(=O)[nH]1)CCCC3)CC2 [Example 226, 4-chloro-1′-(4-oxo-3,4,5,6,7,8-hexahydroquinazolin-2-yl)-1-(pyridin-3-ylmethyl) spiro [indoline-3,4′-piperidin]-2-one] |
| 20 to 200 | 20 to 200 | 100 to 600 |  |  |  | CN(C)c1ccc(-c2cc(F)c3c(c2)C(=O)OC32CCN(c3nc4c(c(=O)[nH]3)CCCN4C)CC2)cc1 [Example 449, 6-[4-(dimethylami-no)phenyl]-4-fluoro-1′-(4-hydroxy-8-methyl-6,7-di-hydro-5H-pyrido[2,3-d]pyrimidin-2-yl)spiro[2-benzo-furan-3,4′-piperidine]-1-one] |
|  |  |  | < 20 | < 20 | 100 to 600 | CN1CC2(CCN(c3nc4c(c(=O)[nH]3)CCCN4C)CC2)c2c(F)cc(F)cc21 [Example 337, 2-(4,6-difluoro-1-methylspiro [indoline-3,4′-piperidin]-1′-yl)-8-methyl-5,6,7,8-tetrahy-dropyrido [2,3-d] pyrimidin-4(3H)-one] |
|  |  |  | < 20 | < 20 | 100 to 600 | CN1CCCc2c1nc(N1CCC3(CC1)C(=O)N(C)c1cc(OCCN4CCOCC4)cc(Cl)c13)[nH]c2=O [Example 377, 4-chloro-1-methyl-1′-(8-methyl-4-oxo-3,4,5,6,7,8-hexahydropy-rido[2,3-d]pyrimidin-2-yl)-6-(2-morpholino-ethoxy) spiro[indoline-3,4′-piperidin]-2-one] |
| 20 to 200 | 20 to 200 | 100 to 600 |  |  |  | CN1CCCc2c1nc(N1CCC3(CC1)C(=O)N(C)c1cc(N4CC(=O)N(Cc5ccccc5)C(=O)C4)cc(F)c13)[nH]c2=O [Example 459, 1-benzyl-4-[4-fluoro-1-methyl-1′-(8-methyl-4-oxo-3,4,5,6,7,8-hexa-hydropyrido[2,3-d]pyrimidin-2-yl)-2-oxospiro[indole-3,4′-piperidine]-6-yl]piperazine-2,6-dione] |
|  |  |  | < 20 | < 20 | 100 to 600 | CN1CCCc2c1nc(N1CCC3(CC1)C(=O)N(C)c1cc(OCCN4CCCCC4)cc(Cl)c13)[nH]c2=O [Example 376, 4-chloro-1-methyl-1′-(8-methyl-4-oxo-3,4,5,6,7,8-hexahydropy-rido[2,3-d]pyrimidin-2-yl)-6-(2-(piperidin-1-yl)ethoxy)spiro [indoline-3,4′-piperidin]-2-one] |
|  |  |  | 20 to 200 | < 20 | 600 to 1000 | O=c1[nH]c(N2CCC3(CC2)CN(Cc2ccncc2)c2ccccc23)nc2c1CCCC2 [Example 100, 2-[1-(pyridin-4-ylmethyl)spiro[indoline-3,4′-piperidin]-1′-yl]-5,6,7,8-tetrahydroquinazolin-4(3H)-one] |
|  |  |  | < 20 | < 20 | 100 to 600 | O=c1[nH]c(N2CCC3(CC2)CN(Cc2ccncc2)c2cc(F)cc(F)c23)nc2c1CCCC2 [Example 254, 2-[4,6-difluoro-1-(pyridin-4-yl)methyl-spiro[indoline-3,4′-piperidin]-1′-yl]-5,6,7,8-tetrahydro-quinazolin-4(3H)-one] |
|  |  |  | 20 to 200 | 20 to 200 | 600 to 1000 | O=c1[nH]c(N2CCC3(CC2)CN(Cc2cccnc2)c2ccccc23)nc2c1CCCC2 [Example 101, 2-[1-(pyridin-3-ylmethyl)spiro[indoline-3,4′-piperidin]-1′-yl]-5,6,7,8-tetrahydroquinazolin-4(3H)-one] |
| < 20 | < 20 | 600 to 1000 |  |  |  | C[C@@H]1CN(c2cc(F)c3c(c2)N(CC(F)(F)F)C(=O)C32CCN(c3nc4c(c(=O)[nH]3)CCCN4C)CC2)C[C@H](C)N1 [Example 417, 6-(cis-3,5-dimethyl-piperazin-1-yl)-4-fluoro-1′-(8-methyl-4-oxo-3,4,5,6,7,8-hexahydropyrido[2,3-d]pyrimidin-2-yl)-1-(2,2,2-trifluoroethyl) spiro[indoline-3,4′-piperidin]-2-one] |
| < 20 | 20 to 200 | 100 to 600 |  |  |  | CN1CCCc2c1nc(N1CCC3(CC1)C(=O)N(C)c1cc(N4CCN(S(=O)(=O)N(C)C)CC4)cc(F)c13)[nH]c2=O [Example 458, 4-[4-fluoro-1-meth-yl-1′-(8-methyl-4-oxo-3,4,5,6,7,8-hexahydropyrido [2,3-d]pyrimidin-2-yl)-2-oxospiro [indole-3,4′-piperi-dine]-6-yl]-N,N-di-methylpiperazine-1-sulfonamide] |
|  |  |  | < 20 | < 20 | 100 to 600 | CN1CCCc2c1nc(N1CCC3(CC1)C(=O)N(CCO)c1cc(F)cc(F)c13)[nH]c2=O [Example 340, 4,6-difluoro-1-(2-hydroxyethyl)-1′-(8-methyl-4-oxo-3,4,5,6,7,8-hexahydro-pyrido[2,3-d]pyrimidin-2-yl)spiro [indoline-3,4′-piperidin]-2-one] |
|  |  |  | < 20 | < 20 | 600 to 1000 | CN1C(=O)C2(CCN(c3nc4c(c(=O)[nH]3)CCCC4)CC2)c2c(Cl)cc(OCCCN3CCOCC3)cc21 [Example 334] |
| < 20 | < 20 | 100 to 600 |  |  |  | O=C1N(CC(F)(F)F)c2cccc(F)c2C12CCN(c1nc3c(c(=O)[nH]1)CCCN3)CC2 [Example 451, 4-fluoro-1′-(4-hy-droxy-5,6,7,8-tetra-hydropyrido[2,3-d]pyrimidin-2-yl)-1-(2,2,2-trifluoro-ethyl)spiro[indole-3,4′-piperidine]-2-one] |

| Structure (SMILES) | IC50 (tankyrase 2 (TNKS 2); [2]) [nM] | IC50 (tankyrase 1 (TNKS 1); [3]) [nM] | GI50 [1, 4] [nM] | IC50 (tankyrase 2 (TNKS 2); [5]) [nM] | IC50 (tankyrase 1 (TNKS 1); [6]) [nM] | GI50 [1, 7] [nM] |
| --- | --- | --- | --- | --- | --- | --- |
| CN(C)CCOc1ccc(F)c2c1N(C)C(=O)C21CCN(c2nc3c(c(=O)[nH]2)CCCN3C)CC1 [Example 401, 7-[2-(dimethylamino)ethoxy]-4-fluoro-1′-(4-hy-droxy-8-methyl-6,7-di-hydro-5H-pyrido[2,3-d]pyrimidin-2-yl)-1-methyl spiro[indole-3,4′-piperidin]-2-one] | < 20 | < 20 | 100 to 600 |  |  |  |
| CN(C)CCOc1ccc(Cl)c2c1N(C)C(=O)C21CCN(c2nc3c(c(=O)[nH]2)CCCN3C)CC1 [Example 396, 4-chloro-7-[2-(dimethylamino)ethoxy]-1-methyl-1′-(8-methyl-4-oxo-3,4,5,6,7,8-hexahydro-pyrido [2,3-d]pyrimidin-2-yl)spiro [indoline-3,4′-piperidin]-2(1H)-one] | < 20 | < 20 | 100 to 600 |  |  |  |
| CN1CCC(Oc2ccc(F)c3c2N(C)C(=O)C32CCN(c3nc4c(c(=O)[nH]3)CCCN4C)CC2)CC1 [Example 420, 4-fluoro-1′-(4-hydroxy-8-methyl-6,7-dihydro-5H-pyrido[2,3-d]pyrimidin-2-yl)-1-methyl-7-(1-methylpiperidin-4-yl)oxyspiro[indole-3,4′-piperidin]-2-one] | < 20 | < 20 | 100 to 600 |  |  |  |
